Among the data in ChEMBL document CHEMBL3608305, “Synergistic activation of quorum sensing in Vibrio harveyi” (Bioorg Med Chem Lett, 2015) are Activity and EC50 values, retold here.

Usually EC50 stands for the concentration needed to bring the measured effect to its halfway point.

Molecules are shown by their SMILES. The source made the active and inactive calls. The calls are words filed in the database; no cut-off is given here.

The target of series [1] is Autoinducer 2-binding periplasmic protein LuxP (Vibrio harveyi) (UniProt P54300). Briefly: Binding affinity to LuxP in Vibrio harveyi BB120 assessed as activation of quorum sensing system after 6 hrs by bioluminescence assay. As to conditions: Vibrio campbellii ATCC BAA-1116.
Series [2] has the same target. Briefly: Binding affinity to LuxP in Vibrio harveyi MM32 assessed as activation of quorum sensing system at 1.5 to 100 uM after 5 hrs by bioluminescence assay in absence of exogenous synthetic DPD.
Series [3] shares this target. Briefly: (§1) Binding affinity to LuxP in Vibrio harveyi MM32 assessed as activation of quorum sensing system after 5 hrs by bioluminescence assay in presence of exogenous synthetic DPD.
Series [4] addresses Autoinducer 2-binding periplasmic protein LuxP (Vibrio harveyi, UniProt P54300). Described as §1.
Series [5] concerns Vibrio harveyi. Briefly: Toxicity in Vibrio harveyi MM32 at >5 uM. It is filed as organism-based. Conditions: in vivo.

Autoinducer 2-binding periplasmic protein LuxP (Vibrio harveyi), sequence (P54300 whole entry): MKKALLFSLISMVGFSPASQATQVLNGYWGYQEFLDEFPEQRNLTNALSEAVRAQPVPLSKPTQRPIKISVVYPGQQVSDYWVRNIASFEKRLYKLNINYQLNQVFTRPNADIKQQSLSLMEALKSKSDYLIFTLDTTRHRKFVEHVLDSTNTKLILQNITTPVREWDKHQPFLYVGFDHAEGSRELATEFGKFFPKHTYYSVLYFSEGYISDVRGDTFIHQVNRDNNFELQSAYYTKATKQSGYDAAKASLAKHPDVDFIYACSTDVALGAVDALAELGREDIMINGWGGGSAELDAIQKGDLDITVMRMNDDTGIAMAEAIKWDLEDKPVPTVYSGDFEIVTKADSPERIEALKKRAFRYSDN
Autoinducer 2-binding periplasmic protein LuxP, sequence (P54300 whole entry): as above

Consider `O=C(Cc1ccc2ccccc2c1)C(=O)[C@@H](O)CO`, for which the Activity result is “Dose-dependent effect” in series [1], “Dose-dependent effect” in series [3] and “Toxic” in series [5]. Further, the result in series [2] was inactive. Also, the EC50 in series [4] came to 20 µM.
